Earlier results in patent US20040198838A1, “Pharmaceutical compositions containig terbinafin and use thereof” (priority 2001, published 2004).

What was measured:
[1] = target: CYP2D6 (Homo sapiens, UniProt P10635)
Chain of CYP2D6 (P10635 whole entry): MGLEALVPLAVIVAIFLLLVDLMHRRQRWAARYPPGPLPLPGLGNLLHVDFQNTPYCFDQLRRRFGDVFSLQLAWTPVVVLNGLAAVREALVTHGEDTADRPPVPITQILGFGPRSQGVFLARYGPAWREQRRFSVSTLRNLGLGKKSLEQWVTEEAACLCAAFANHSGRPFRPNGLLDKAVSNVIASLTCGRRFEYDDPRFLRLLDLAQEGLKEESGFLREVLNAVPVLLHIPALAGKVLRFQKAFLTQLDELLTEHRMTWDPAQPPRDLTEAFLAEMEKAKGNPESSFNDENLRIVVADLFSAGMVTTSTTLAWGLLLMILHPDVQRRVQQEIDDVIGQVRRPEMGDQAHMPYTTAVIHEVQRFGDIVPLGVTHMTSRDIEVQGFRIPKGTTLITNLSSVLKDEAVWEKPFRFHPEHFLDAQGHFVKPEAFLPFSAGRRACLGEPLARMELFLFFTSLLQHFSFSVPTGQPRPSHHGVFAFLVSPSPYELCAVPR

inhibition of CYP2D6 [1]: potent inhibitor
effective half-life (in vivo): about 36 hours
reduction of clearance (patients with renal impairment (creatinine clearance up to 50 ml/min) or hepatic cirrhosis): approximately 50%
area under the curve over 24 hours (AUC) (single 250 mg terbinafine dose): about 4.56 μg.hour/ml
peak drug plasma concentration (Cmax) (single 250 mg terbinafine dose): about 1 μg/ml
time to peak drug plasma concentration (single 250 mg terbinafine dose): ≤ 2 h
factor of AUC increase in steady state versus single dose (steady state): 2.5
increase of peak blood concentration (Cmax) in steady state versus single dose (steady state): 25%
change in AUC when administered with a meal (with a meal): moderate increase
Compound: CN(C/C=C/C#CC(C)(C)C)Cc1cccc2ccccc12 [terbinafine, Terbinafine]
